Assays:
HEK293T/Gα16gust44 cells = test: Fluo-4 calcium assay, negative control cells expressing Gα16gust44 only (mock transfected); type: cell-based, human; conditions: for Neg. control (mock transfection) AVG: calcium chloride 2 mM, sucralose 0.5 mM, aspartame 0.85 mM, perillartine 50 μM, cinnamonitrile 100 μM, cyclamate 1 mM, NDHC 0.33 mM, six replicates
hCaSR = molecular target: T1, hCaSR (Homo sapiens, UniProt P41180); test: Fluo-4 calcium assay in cells transfected with hCaSR; type: cell-based; conditions: transient transfection; calcium chloride 2 mM, sucralose 0.5 mM, aspartame 0.85 mM, perillartine 50 μM, cinnamonitrile 100 μM, cyclamate 1 mM, NDHC 0.33 mM; six replicates
T1 construct: full length cDNAs encoding the human CaSR (commercially available from Origene Inc., USA); host or cells: HEK293T cells stably expressing Galpha16gust44
T1 sequence (P41180 20-1078): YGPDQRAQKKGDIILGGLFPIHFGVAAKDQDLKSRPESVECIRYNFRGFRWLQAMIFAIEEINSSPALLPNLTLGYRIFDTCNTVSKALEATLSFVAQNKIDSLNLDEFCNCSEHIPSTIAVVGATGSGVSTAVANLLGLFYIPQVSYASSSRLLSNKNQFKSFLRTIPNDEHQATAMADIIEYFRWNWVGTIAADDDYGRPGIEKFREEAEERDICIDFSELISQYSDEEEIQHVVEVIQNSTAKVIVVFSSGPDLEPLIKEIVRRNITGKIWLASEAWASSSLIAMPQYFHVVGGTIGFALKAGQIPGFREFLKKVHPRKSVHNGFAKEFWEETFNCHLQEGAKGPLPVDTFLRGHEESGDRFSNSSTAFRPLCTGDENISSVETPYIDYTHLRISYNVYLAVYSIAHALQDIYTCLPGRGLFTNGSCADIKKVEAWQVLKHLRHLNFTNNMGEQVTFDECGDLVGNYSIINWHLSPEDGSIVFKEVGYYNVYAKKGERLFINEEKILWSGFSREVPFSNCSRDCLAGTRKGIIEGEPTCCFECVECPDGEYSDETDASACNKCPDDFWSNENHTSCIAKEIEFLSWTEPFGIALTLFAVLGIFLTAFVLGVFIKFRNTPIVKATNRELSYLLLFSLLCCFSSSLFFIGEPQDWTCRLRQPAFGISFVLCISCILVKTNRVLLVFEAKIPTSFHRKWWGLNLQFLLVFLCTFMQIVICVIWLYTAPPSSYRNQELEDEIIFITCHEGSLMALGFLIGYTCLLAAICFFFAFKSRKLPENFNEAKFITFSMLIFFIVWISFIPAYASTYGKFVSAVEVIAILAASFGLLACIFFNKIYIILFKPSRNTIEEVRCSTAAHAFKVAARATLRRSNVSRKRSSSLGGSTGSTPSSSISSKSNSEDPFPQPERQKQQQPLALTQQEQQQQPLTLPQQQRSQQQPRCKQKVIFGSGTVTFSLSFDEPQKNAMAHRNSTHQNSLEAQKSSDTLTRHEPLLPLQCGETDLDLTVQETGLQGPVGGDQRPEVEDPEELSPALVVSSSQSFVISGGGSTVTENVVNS

[1] = molecular target: T2, transmembrane domains of TAS1R (Homo sapiens, UniProt Q7RTX0+Q8TE23, C757R); test: Identification of candidate sweetness enhancers that bind to the transmembrane domains; type: binding; conditions: identified by the applicants as candidate sweetness enhancers
T2 sequence (Q8TE23 20-839): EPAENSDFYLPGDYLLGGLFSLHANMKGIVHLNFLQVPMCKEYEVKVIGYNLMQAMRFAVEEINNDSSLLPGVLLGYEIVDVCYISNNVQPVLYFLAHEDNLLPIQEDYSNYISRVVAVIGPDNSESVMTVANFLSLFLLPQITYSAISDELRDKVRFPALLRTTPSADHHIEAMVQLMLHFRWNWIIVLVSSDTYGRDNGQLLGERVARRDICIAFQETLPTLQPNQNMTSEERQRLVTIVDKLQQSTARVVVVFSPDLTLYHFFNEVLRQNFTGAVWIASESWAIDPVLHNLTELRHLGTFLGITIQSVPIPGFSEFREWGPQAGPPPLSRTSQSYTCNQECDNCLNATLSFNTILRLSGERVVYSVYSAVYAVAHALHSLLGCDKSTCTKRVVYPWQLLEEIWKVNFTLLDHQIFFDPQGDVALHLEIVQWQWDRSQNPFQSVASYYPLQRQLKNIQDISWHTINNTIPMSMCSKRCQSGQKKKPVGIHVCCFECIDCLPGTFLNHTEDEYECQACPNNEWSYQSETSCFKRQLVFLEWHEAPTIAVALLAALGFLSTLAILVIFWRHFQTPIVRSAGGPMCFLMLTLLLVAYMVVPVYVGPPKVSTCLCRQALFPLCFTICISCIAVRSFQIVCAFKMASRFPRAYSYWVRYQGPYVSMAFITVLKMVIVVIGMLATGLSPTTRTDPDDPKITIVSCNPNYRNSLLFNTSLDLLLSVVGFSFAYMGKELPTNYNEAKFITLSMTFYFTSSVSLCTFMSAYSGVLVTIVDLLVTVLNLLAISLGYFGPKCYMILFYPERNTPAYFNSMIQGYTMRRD
T2 sequence (Q7RTX0 21-852 C757R): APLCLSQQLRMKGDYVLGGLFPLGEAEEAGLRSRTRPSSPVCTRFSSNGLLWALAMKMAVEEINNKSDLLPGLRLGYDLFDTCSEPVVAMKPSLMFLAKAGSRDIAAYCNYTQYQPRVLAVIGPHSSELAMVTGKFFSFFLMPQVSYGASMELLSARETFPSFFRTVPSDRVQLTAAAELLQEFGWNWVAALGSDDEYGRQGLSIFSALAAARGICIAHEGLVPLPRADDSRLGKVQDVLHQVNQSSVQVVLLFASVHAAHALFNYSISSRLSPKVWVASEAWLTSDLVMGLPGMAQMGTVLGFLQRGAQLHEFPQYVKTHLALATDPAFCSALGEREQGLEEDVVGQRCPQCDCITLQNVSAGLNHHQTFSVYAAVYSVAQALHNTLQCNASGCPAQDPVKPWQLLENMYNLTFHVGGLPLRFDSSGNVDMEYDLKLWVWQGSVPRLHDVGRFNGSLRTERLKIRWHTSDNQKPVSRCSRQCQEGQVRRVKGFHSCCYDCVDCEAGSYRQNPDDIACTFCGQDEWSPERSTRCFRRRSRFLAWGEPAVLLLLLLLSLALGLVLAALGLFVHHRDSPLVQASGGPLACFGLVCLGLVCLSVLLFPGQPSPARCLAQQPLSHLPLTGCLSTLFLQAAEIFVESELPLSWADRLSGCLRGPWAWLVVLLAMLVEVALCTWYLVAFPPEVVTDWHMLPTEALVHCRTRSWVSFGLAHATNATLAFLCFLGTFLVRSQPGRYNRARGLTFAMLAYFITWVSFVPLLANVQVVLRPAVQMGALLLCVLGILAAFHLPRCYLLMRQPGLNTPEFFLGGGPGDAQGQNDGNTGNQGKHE

[2] = test system: sweet sensitive panelists; test: Ranking test of sweetness isointensity (R-index), sensory panel; type: in vivo, human
Description: (§1) The sensory evaluation was conducted using a ranking method. Samples at ambient temperature were randomly presented in 15 ml blind aliquots (unidentifiable by panelists). Panels consisted of 10 sweet sensitive subjects and samples were presented in 3 replications over 1 session. After tasting each sample, the mouth was rinsed thoroughly with water at ambient temperature prior to tasting the next sample. […] They were asked to rank the samples from low to high with respect to perceived sweet taste.
as §1, with “taste. […] From ranking-style sensory tests, a matrix of responses (see table X below) is constructed such that each cell contains the number of times a given sample was ranked at a particular location.” for “taste.”
Essentially, the R-index is a measure of difference between two samples. The R-index has a chance level of detection of 50%. […] The critical value is the statistically relevant value that the derived R-index must deviate from (i.e greater or less than) in order to be considered significant.

[3] = test system: sweet sensitive panelists; test: Forced choice test of sweetness versus sucrose, sensory panel; type: in vivo, human; conditions: 1% sucrose, comparison with 60 ppm swingle extract; highest imaginable sweetness rates as 10
Description: A forced choice sensory evaluation of […] extract as a sweetener was performed as described in example 13 (see also for forced choice method, O'Mahony, 1992, J. Sens. Stud., 7:1-47), subject to the following modifications: […]

T1R2-TMD = molecular target: T3, T1R2-TMD (Homo sapiens, UniProt Q8TE23)
T3 sequence (Q8TE23 564-839): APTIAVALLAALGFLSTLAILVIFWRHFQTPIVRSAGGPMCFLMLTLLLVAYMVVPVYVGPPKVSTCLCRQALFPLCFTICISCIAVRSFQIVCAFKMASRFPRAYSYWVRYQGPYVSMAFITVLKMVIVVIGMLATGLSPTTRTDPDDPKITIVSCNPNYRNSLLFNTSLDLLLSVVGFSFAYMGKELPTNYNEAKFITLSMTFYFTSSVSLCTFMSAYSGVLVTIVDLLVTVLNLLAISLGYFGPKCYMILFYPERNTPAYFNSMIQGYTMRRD

[4] = 0.5% sucrose in 1700 ppm cyclamate vs 1700 ppm cyclamate
[5] = 0.5% sucrose in 1700 ppm cyclamate vs 1900 ppm cyclamate
[6] = 0.5% sucrose in 1700 ppm cyclamate vs 2100 ppm cyclamate
[7] = 0.5% sucrose in 1700 ppm cyclamate vs 2300 ppm cyclamate
[8] = 0.5% sucrose in 1700 ppm cyclamate vs 2500 ppm cyclamate
[9] = 0.5% sucrose in aqueous 600 ppm p-ethoxybenzaldehyde vs 600 ppm p-ethoxybenzaldehyde
[10] = 0.5% sucrose in aqueous 600 ppm p-ethoxybenzaldehyde vs 700 ppm p-ethoxybenzaldehyde

N#CC=Cc1ccccc1 [cinnamonitrile]
Neg. control (mock transfection) AVG (HEK293T/Gα16gust44 cells): −998 RFU | hCaSR AVG (hCaSR): 197 RFU | binding to the transmembrane domains of TAS1R [1]: bind to the transmembrane domains of TAS1R

OC[C@H]1O[C@H](O[C@]2(CCl)O[C@H](CCl)[C@@H](O)[C@@H]2O)[C@H](O)[C@@H](O)[C@H]1Cl [Sucralose, 6-dichloro-1,6-dideoxy-β-D-fructo-furanosyl 4-chloro-4-deoxy-α-D-galactopyranoside]
Neg. control (mock transfection) AVG (HEK293T/Gα16gust44 cells): −186 RFU | hCaSR AVG (hCaSR): 22 RFU

OC[C@H]1O[C@@](CO)(O[C@H]2O[C@H](CO)[C@@H](O)[C@H](O)[C@H]2O)[C@@H](O)[C@@H]1O [sucrose, α-D-glucopyranosyl-(1→2)-β-D-fructofaranose]
cyclamate equivalent in sweetness added ([2]; 0.5% sucrose in 1700 ppm cyclamate): 200 ppm cyclamate | R-index [2, 4]: 85% | sucrose sample sweetness [2, 4]: sweeter | R-index [2, 5]: 60% | sucrose sample sweetness [2, 5]: isosweet | R-index [2, 6]: 21% | sucrose sample sweetness [2, 6]: less sweet | R-index [2, 7]: 7% | sucrose sample sweetness [2, 7]: less sweet | R-index [2, 8]: 4% | sucrose sample sweetness [2, 8]: less sweet | p-ethoxybenzaldehyde isointensity ([2]; 0.5% sucrose in aqueous 600 ppm p-ethoxybenzaldehyde): 700 ppm p-ethoxybenzaldehyde | R-index [2, 9]: 68% | mixture sample sweetness [2, 9]: sweeter | R-index [2, 10]: 59% | mixture sample sweetness [2, 10]: isosweet | cyclamate isointensity ([2]; 1700 ppm cyclamate+0.5% sucrose): 1900 ppm cyclamate | sweetness intensity rating [3]: 0.72

C=C(C)[C@@H]1CC=C(/C=N/O)CC1 [perillartine]
AVERAGE fluorescence increase, T1R2-TMD/Gα16gust44 (T1R2-TMD; 50 μM perillartine): 973.06 RFU | increase in fluorescence compared to the signal of the negative control (T1R2-TMD; perillartine, many cell clones, vs cells expressing Gα16gust44 but not T1R2-TMD): greater than 10 times | AVERAGE fluorescence increase, Gα16gust44 ONLY (neg. control) (HEK293T/Gα16gust44 cells; 50 μM perillartine): 73.78 RFU | Neg. control (mock transfection) AVG (HEK293T/Gα16gust44 cells): −379 RFU | hCaSR AVG (hCaSR): 73 RFU | binding to the transmembrane domains of TAS1R [1]: bind to the transmembrane domains of TAS1R

[Ca+2].[Cl-].[Cl-] [Calcium, calcium chloride]
Neg. control (mock transfection) AVG (HEK293T/Gα16gust44 cells): 1570 RFU | hCaSR AVG (hCaSR): 7610 RFU

Source: patent US8124361B2, “Methods of screening for sweet taste modulators” (Givaudan SA, priority 2006, dated 2012)
